Assay results taken from US20090030086A1, “ANTIMICROBIAL AGENTS” (priority 2005, published 2009).
Converted amounts (≈) assume the structure as drawn. Read-outs that look alike come from different tables or passages of the source.

How the values were obtained:
P. acnes NCTC 737 [1] = experiment: Disc diffusion assay (DDA); assay type: cell-based, Propionibacterium acnes; settings: P. acnes NCTC 737, unsupplemented agar, 200 μg per disc (2,6-dimethoxy-p-benzoquinone 100 μg); for zone of inhibition at 200 µg/disc: Cutibacterium acnes, NCTC737, read-out: DDA (diameter of zone of inhibition)
Procedure: (§1) The Propionibacterium spp organisms were cultured and maintained on Wilkins-Chalgren Anaerobe Medium (agar and broth) at pH 6.0; cultures were incubated anaerobically at 37° C. for 72 hours.
(§2) A sterile paper disc was impregnated with a sample of the test compound and a minimum of 30 minutes allowed for the solvents to evaporate as far as possible. The disc was then placed on an agar plate onto which the test micro-organism had been inoculated. The plate was then incubated under the conditions described above, following which it was examined visually for signs of bacterial growth. […] The diameter of this zone of “inhibition” was measured using a ProtoCOL™ automated zone sizer (Synbiosis, Cambridge, UK).
(§3) The area of the zone of inhibition was calculated from the measured zone diameter (D) using the formula π(D/2)^2.
(§4) For most DDA assays, 200 μg of each compound was loaded onto each disc.

S. aureus ATCC 29213 [2] = experiment: MBC assay; assay type: cell-based, Staphylococcus aureus
Procedure: (§5) The staphylococci and enterococci were cultured and maintained on Mueller-Hinton Medium (agar and broth) at pH 7.2; they were incubated aerobically at 37° C. for 24 hours.
(§6) This assay, normally carried out after an MIC assay, determines the minimum concentration of a compound that is lethal to the micro-organism being tested.
(§7) These samples were then individually sub-cultured on non-selective agar medium, under the incubation conditions described above. Following incubation they were examined visually for bacterial growth.
(§8) The following experiments all used S. aureus ATCC 29213 as the test organism. MIC, MBC and DDA assays, as described above, were carried out using a range of different benzoquinones and hydroquinones. Supplemented DDA assays, in the presence of salt, lipid and blood, were also conducted.

S. aureus ATCC 29213 [3] = experiment: Supplemented disc diffusion assay; assay type: cell-based, Staphylococcus aureus; settings: S. aureus ATCC 29213, 200 μg per disc (thymoquinone 50 μg, 2,6-dimethoxy-p-benzoquinone 100 μg); for zone of inhibition at 200 µg/disc: Staphylococcus aureus, ATCC29213, 24 h
Procedure: as §5, §2
(§9) Performance under these conditions can provide a more reliable indication of activity on topical application. For assays conducted using S. aureus strains, the supplements were defibrinated horse blood (5% v/v), lipid (Tween™ 80 at 1% v/v) and sodium chloride (100 mM). For those using Propionibacterium spp. strains, the supplements were lipid (Tween™ 80 at 1% v/v) and sodium chloride (100 mM).
as §8, §4

S. aureus ATCC 29213 [4] = experiment: MIC assay; assay type: cell-based, Staphylococcus aureus; settings: S. aureus ATCC 29213, Mueller-Hinton broth pH 7.2, aerobic, 37° C., 24 hours
Procedure: 1. Staphylococcus aureus—the principal staphylococcal test micro-organism used in these studies was Staphylococcus aureus ATCC 29213. This strain is the one recommended for QC/QA purposes in Minimum Inhibitory Concentration (MIC) assays by the US Clinical and Laboratory Standards Institute (formerly the NCCLS), an FDA-recognised body.
as §5
(§10) This is a standard international method for quantitatively assessing the antimicrobial activity of a compound in a liquid medium. The method used a 96-well microtitre plate, capable of holding about 200 μl of liquid per well. […] The culture media were as described above for the relevant test organisms.
(§11) The wells were inoculated with a liquid suspension of freshly grown micro-organism and incubated under the conditions described above. After incubation, the microtitre plate was examined visually (with the aid of a light box) for cloudiness in each well, which would indicate microbial growth. The MIC value was recorded as the lowest concentration of test compound required to inhibit microbial growth, i.e., the lowest concentration for which the liquid in the well remained clear.
(§12) The assays were conducted in duplicate and included both negative (culture medium only) and positive (culture medium, diluting solvent and inoculum) controls.
as §8

P. acnes NCTC 737 [5] = experiment: MBC assay; assay type: cell-based, Propionibacterium acnes; settings: P. acnes NCTC 737
Procedure: as §1, §6, §7
(§13) MIC, MBC and DDA assays, as described above, were carried out using a range of different benzoquinones and hydroquinones. Supplemented DDA assays, in the presence of salt and lipid, were also conducted.

P. acnes NCTC 737 [6] = experiment: MIC assay; assay type: cell-based, Propionibacterium acnes; settings: P. acnes NCTC 737, Wilkins-Chalgren broth pH 6.0, anaerobic, 37° C., 72 hours
Procedure: 2. Propionibacterium spp.—the principal propionibacterial strain used in these studies was Propionibacterium acnes NCTC 737.
as §1, §10, §11, §12, §13

S. aureus ATCC 29213 [7] = experiment: Disc diffusion assay (DDA); assay type: cell-based, Staphylococcus aureus; settings: S. aureus ATCC 29213, unsupplemented agar, 200 μg per disc (thymoquinone 50 μg, 2,6-dimethoxy-p-benzoquinone 100 μg); for zone of inhibition at 200 µg/disc: Staphylococcus aureus, ATCC29213, read-out: DDA (diameter of zone of inhibition)
Procedure: as §5, §2, §3, §4

P. acnes NCTC 737 [8] = experiment: Supplemented disc diffusion assay; assay type: cell-based, Propionibacterium acnes; settings: P. acnes NCTC 737; for DDA + lipid / DDA + salt / zone of inhibition at 200 µg/disc: 200 μg per disc (2,6-dimethoxy-p-benzoquinone 100 μg); for zone of inhibition at 200 µg/disc: Cutibacterium acnes, NCTC737, 72 h
Procedure: as §1, §2, §9, §13, §4

[9] = defibrinated horse blood 5% v/v
[10] = Staphylococcus aureus, ATCC29213, read-out: MBC
[11] = Tween 80 at 1% v/v, read-out: DDA + lipid
[12] = defibrinated horse blood 5% v/v, read-out: DDA + blood
[13] = sodium chloride 100 mM, read-out: DDA + salt
[14] = Staphylococcus aureus, ATCC29213, read-out: MIC
[15] = Cutibacterium acnes, NCTC737, read-out: MBC
[16] = Cutibacterium acnes, NCTC737, read-out: MIC

| SMILES | DDA (diameter of zone of inhibition) (P. acnes NCTC 737 [1]) [mm] | MBC (S. aureus ATCC 29213 [2]) [µg/mL] | MIC/MBC ratio (S. aureus ATCC 29213 [2]) | DDA + lipid (S. aureus ATCC 29213 [3]; Tween 80 at 1% v/v) [mm] | DDA + blood (S. aureus ATCC 29213 [3]; [9]) [mm] | DDA + salt (S. aureus ATCC 29213 [3]; sodium chloride 100 mM) [mm] | MIC (S. aureus ATCC 29213 [4]) [µg/mL] | MBC (P. acnes NCTC 737 [5]) [µg/mL] | MIC/MBC ratio (P. acnes NCTC 737 [5]) | MIC (P. acnes NCTC 737 [6]) [µg/mL] | DDA (diameter of zone of inhibition) (S. aureus ATCC 29213 [7]) [mm] | DDA + lipid (P. acnes NCTC 737 [8]; Tween 80 at 1% v/v) [mm] | DDA + salt (P. acnes NCTC 737 [8]; sodium chloride 100 mM) [mm] | zone of inhibition at 200 µg/disc (P. acnes NCTC 737 [1]) [mm] | MBC (S. aureus ATCC 29213 [2]; [10]) [µg/mL] | zone of inhibition at 200 µg/disc (S. aureus ATCC 29213 [3]; [11]) [mm] | zone of inhibition at 200 µg/disc (S. aureus ATCC 29213 [3]; [12]) [mm] | zone of inhibition at 200 µg/disc (S. aureus ATCC 29213 [3]; [13]) [mm] | MIC (S. aureus ATCC 29213 [4]; [14]) [µg/mL] | MBC (P. acnes NCTC 737 [5]; [15]) [µg/mL] | also measured |
| --- | --- | --- | --- | --- | --- | --- | --- | --- | --- | --- | --- | --- | --- | --- | --- | --- | --- | --- | --- | --- | --- |
| Oc1ccc(O)c(F)c1F [2,3-difluoro-p-hydroquinone] | 0.0 | 15.6 (≈ 107 µM) | 1 | 14.63 | 10.27 | 15.56 | 15.6 (≈ 107 µM) | 31.25 (≈ 214 µM) | 0.25 | 7.8 (≈ 53.4 µM) | 15.77 | 0.0 | 0.0 |  |  |  |  |  |  |  |  |
| CC(C)(C)C1=CC(=O)C=CC1=O [2-t-butyl-p-benzoquinone] |  |  | 1 |  |  |  |  |  | 0.5 |  |  |  |  | 60.8 | 15.6 (≈ 95 µM) | > 90 | 10.9 | 54.7 | 15.6 (≈ 95 µM) | 15.6 (≈ 95 µM) | MIC (P. acnes NCTC 737 [6]; [16]): 7.8 µg/mL (≈ 47.5 µM); zone of inhibition at 200 µg/disc (S. aureus ATCC 29213 [7]): 58.5 mm; zone of inhibition at 200 µg/disc (P. acnes NCTC 737 [8]; [11]): > 90 mm; zone of inhibition at 200 µg/disc (P. acnes NCTC 737 [8]; [13]): > 90 mm; effect of lipid on antimicrobial activity (P. acnes NCTC 737 [8]; activity increases in the presence of lipid): potentiated |
| Oc1cc(Cl)c(O)cc1Cl [2,5-dichloro-p-hydroquinone] | 13.46 | 15.6 (≈ 87.1 µM) | 1 | 15.63 | 13.44 | 18.75 | 15.6 (≈ 87.1 µM) | 62.5 (≈ 349 µM) | 1 | 62.5 (≈ 349 µM) | 19.90 | 0.0 | 18.64 |  |  |  |  |  |  |  |  |
| CC1=CC(=O)C(Cl)=CC1=O [2-chloro-5-methyl-p-benzoquinone] |  |  | 1 |  |  |  |  |  | 1 |  |  |  |  | 38.9 | 15.6 (≈ 99.6 µM) | 33.9 | 17.7 | 34.2 | 15.6 (≈ 99.6 µM) | 15.6 (≈ 99.6 µM) | MIC (P. acnes NCTC 737 [6]; [16]): 15.6 µg/mL (≈ 99.6 µM); zone of inhibition at 200 µg/disc (S. aureus ATCC 29213 [7]): 34.5 mm; zone of inhibition at 200 µg/disc (P. acnes NCTC 737 [8]; [11]): 38.8 mm; zone of inhibition at 200 µg/disc (P. acnes NCTC 737 [8]; [13]): 37.2 mm |
